{"source": "ChEMBL document CHEMBL1201862", "about": "“PubChem BioAssay data set” (2004)", "test_in_all_cases": "DTP human tumour cell line panel, 48 h", "key": {"786-0": {"system": "786-0"}, "A498": {"system": "A498"}, "A549": {"system": "A549"}, "ACHN": {"system": "ACHN"}, "BT-549": {"system": "BT-549"}, "CAKI-1": {"system": "CAKI-1"}, "CCRF-CEM": {"system": "CCRF-CEM"}, "COLO 205": {"system": "COLO 205"}, "DU-145": {"system": "DU-145"}, "EKVX": {"system": "EKVX"}, "HCC 2998": {"system": "HCC 2998"}, "HCT-116": {"system": "HCT-116"}, "HCT-15": {"system": "HCT-15"}, "HL-60": {"system": "HL-60"}, "HOP-62": {"system": "HOP-62"}, "HOP-92": {"system": "HOP-92"}, "HT-29": {"system": "HT-29"}, "Hs-578T": {"system": "Hs-578T"}, "IGROV-1": {"system": "IGROV-1"}, "K562": {"system": "K562"}, "KM12": {"system": "KM12"}, "LOX IMVI": {"system": "LOX IMVI"}, "M14": {"system": "M14"}, "MCF7": {"system": "MCF7"}, "MDA-MB-231": {"system": "MDA-MB-231"}, "MDA-MB-435": {"system": "MDA-MB-435"}, "MDA-N": {"system": "MDA-N"}, "MOLT-4": {"system": "MOLT-4"}, "Malme-3M": {"system": "Malme-3M"}, "NCI-H23": {"system": "NCI-H23"}, "NCI-H460": {"system": "NCI-H460"}, "NCI-H522": {"system": "NCI-H522"}, "NCI/ADR-RES": {"system": "NCI/ADR-RES"}, "OVCAR-3": {"system": "OVCAR-3"}, "OVCAR-4": {"system": "OVCAR-4"}, "OVCAR-5": {"system": "OVCAR-5"}, "OVCAR-8": {"system": "OVCAR-8"}, "PC-3": {"system": "PC-3"}, "RPMI-8226": {"system": "RPMI-8226"}, "RXF 393": {"system": "RXF 393"}, "SF-268": {"system": "SF-268"}, "SF-295": {"system": "SF-295"}, "SF-539": {"system": "SF-539"}, "SK-MEL-28": {"system": "SK-MEL-28"}, "SK-MEL-2": {"system": "SK-MEL-2"}, "SK-MEL-5": {"system": "SK-MEL-5"}, "SK-OV-3": {"system": "SK-OV-3"}, "SN12C": {"system": "SN12C"}, "SNB-19": {"system": "SNB-19"}, "SNB-75": {"system": "SNB-75"}, "SR": {"system": "SR"}, "SW-620": {"system": "SW-620"}, "T47D": {"system": "T47D"}, "TK-10": {"system": "TK-10"}, "U-251": {"system": "U-251"}, "UACC-257": {"system": "UACC-257"}, "UACC-62": {"system": "UACC-62"}, "UO-31": {"system": "UO-31"}}, "note": "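Growth conditions: 96-well plates. Treatment: test compound, 48 hours, 5 concentrations. Analysis: linear interpolation between bracketing concentrations; unreached endpoints set to highest concentration. At the GI50, growth is halved.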 Active and inactive are the calls of the source. Cut-off read from the data, not from the text of the source: active = GI50 up to about 1.1 µM and inactive = higher.", "data": [{"smiles": "CCOC(=O)CCC(NC(=O)OCc1ccccc1)C(=O)NNC(=O)OC(C)(C)C", "note": "(stereo not drawn)", "values": [{"measurement": "GI50", "setting": "786-0", "value": "> 100 µM (inactive)"}, {"measurement": "GI50", "setting": "A498", "value": "> 100 µM (inactive)"}, {"measurement": "GI50", "setting": "A549", "value": "> 100 µM (inactive)"}, {"measurement": "GI50", "setting": "ACHN", "value": "> 100 µM (inactive)"}, {"measurement": "GI50", "setting": "BT-549", "value": "> 100 µM (inactive)"}, {"measurement": "GI50", "setting": "CAKI-1", "value": "> 100 µM (inactive)"}, {"measurement": "GI50", "setting": "CCRF-CEM", "value": "> 100 µM (inactive)"}, {"measurement": "GI50", "setting": "COLO 205", "value": "> 100 µM (inactive)"}, {"measurement": "GI50", "setting": "DU-145", "value": "> 100 µM (inactive)"}, {"measurement": "GI50", "setting": "EKVX", "value": "> 100 µM (inactive)"}, {"measurement": "GI50", "setting": "HCC 2998", "value": "> 100 µM (inactive)"}, {"measurement": "GI50", "setting": "HCT-116", "value": "> 100 µM (inactive)"}, {"measurement": "GI50", "setting": "HCT-15", "value": "> 100", "unit": "µM"}, {"measurement": "GI50", "setting": "HL-60", "value": "> 100 µM (inactive)"}, {"measurement": "GI50", "setting": "HOP-62", "value": "> 100 µM (inactive)"}, {"measurement": "GI50", "setting": "HOP-92", "value": "> 100 µM (inactive)"}, {"measurement": "GI50", "setting": "HT-29", "value": "> 100 µM (inactive)"}, {"measurement": "GI50", "setting": "Hs-578T", "value": "> 100 µM (inactive)"}, {"measurement": "GI50", "setting": "IGROV-1", "value": "> 100 µM (inactive)"}, {"measurement": "GI50", "setting": "K562", "value": "> 100 µM (inactive)"}, {"measurement": "GI50", "setting": "KM12", "value": "> 100 µM (inactive)"}, {"measurement": "GI50", "setting": "LOX IMVI", "value": "> 100 µM (inactive)"}, {"measurement": "GI50", "setting": "M14", "value": "> 100 µM (inactive)"}, {"measurement": "GI50", "setting": "MCF7", "value": "> 100 µM (inactive)"}, {"measurement": "GI50", "setting": "MDA-MB-231", "value": "41.7 µM (inactive)"}, {"measurement": "GI50", "setting": "MDA-MB-435", "value": "> 100 µM (inactive)"}, {"measurement": "GI50", "setting": "MDA-N", "value": "> 100 µM (inactive)"}, {"measurement": "GI50", "setting": "MOLT-4", "value": "> 100 µM (inactive)"}, {"measurement": "GI50", "setting": "Malme-3M", "value": "> 100 µM (inactive)"}, {"measurement": "GI50", "setting": "NCI-H23", "value": "> 100 µM (inactive)"}, {"measurement": "GI50", "setting": "NCI-H460", "value": "> 100 µM (inactive)"}, {"measurement": "GI50", "setting": "NCI-H522", "value": "> 100 µM (inactive)"}, {"measurement": "GI50", "setting": "NCI/ADR-RES", "value": "> 100 µM (inactive)"}, {"measurement": "GI50", "setting": "OVCAR-3", "value": "> 100 µM (inactive)"}, {"measurement": "GI50", "setting": "OVCAR-4", "value": "> 100 µM (inactive)"}, {"measurement": "GI50", "setting": "OVCAR-5", "value": "> 100 µM (inactive)"}, {"measurement": "GI50", "setting": "OVCAR-8", "value": "> 100 µM (inactive)"}, {"measurement": "GI50", "setting": "PC-3", "value": "> 100 µM (inactive)"}, {"measurement": "GI50", "setting": "RPMI-8226", "value": "> 100 µM (inactive)"}, {"measurement": "GI50", "setting": "RXF 393", "value": "> 100 µM (inactive)"}, {"measurement": "GI50", "setting": "SF-268", "value": "> 100 µM (inactive)"}, {"measurement": "GI50", "setting": "SF-295", "value": "> 100 µM (inactive)"}, {"measurement": "GI50", "setting": "SF-539", "value": "> 100 µM (inactive)"}, {"measurement": "GI50", "setting": "SK-MEL-28", "value": "> 100 µM (inactive)"}, {"measurement": "GI50", "setting": "SK-MEL-2", "value": "> 100 µM (inactive)"}, {"measurement": "GI50", "setting": "SK-MEL-5", "value": "> 100 µM (inactive)"}, {"measurement": "GI50", "setting": "SK-OV-3", "value": "> 100 µM (inactive)"}, {"measurement": "GI50", "setting": "SN12C", "value": "> 100 µM (inactive)"}, {"measurement": "GI50", "setting": "SNB-19", "value": "> 100 µM (inactive)"}, {"measurement": "GI50", "setting": "SNB-75", "value": "> 100 µM (inactive)"}, {"measurement": "GI50", "setting": "SR", "value": "> 100 µM (inactive)"}, {"measurement": "GI50", "setting": "SW-620", "value": "> 100 µM (inactive)"}, {"measurement": "GI50", "setting": "T47D", "value": "> 100 µM (inactive)"}, {"measurement": "GI50", "setting": "TK-10", "value": "> 100 µM (inactive)"}, {"measurement": "GI50", "setting": "U-251", "value": "> 100 µM (inactive)"}, {"measurement": "GI50", "setting": "UACC-257", "value": "> 100 µM (inactive)"}, {"measurement": "GI50", "setting": "UACC-62", "value": "> 100 µM (inactive)"}, {"measurement": "GI50", "setting": "UO-31", "value": "> 100 µM (inactive)"}]}]}
